In the experiment the target is T1, human PAR4 (Homo sapiens, UniProt Q96RI0).
T1 construct: expressed in transfected cells; host or cells: HEK293 PAR4 Clone 1.2A (BMS Arctic ID 383940)
T1 sequence (Q96RI0 18-385): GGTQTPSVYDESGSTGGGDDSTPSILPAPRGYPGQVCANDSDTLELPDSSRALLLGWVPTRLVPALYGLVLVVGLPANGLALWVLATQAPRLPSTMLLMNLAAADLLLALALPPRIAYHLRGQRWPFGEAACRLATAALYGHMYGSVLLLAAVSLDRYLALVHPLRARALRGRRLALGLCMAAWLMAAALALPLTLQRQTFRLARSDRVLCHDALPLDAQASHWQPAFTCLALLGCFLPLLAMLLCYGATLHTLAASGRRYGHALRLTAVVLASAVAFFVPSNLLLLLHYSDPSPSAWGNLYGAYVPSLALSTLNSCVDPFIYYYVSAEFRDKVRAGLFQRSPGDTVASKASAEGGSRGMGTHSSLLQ
Nature of the experiment: PAR4 FLIPR assay: antagonism of agonist-peptide-induced calcium mobilization in PAR4-expressing HEK293 cells. The note with it: H-Ala-Phe(4-F)-[…]NH2-induced intracellular calcium mobilization, 11-point curves. Format: cell-based.
With `COc1cnc2c(-c3nc4cc(F)c(OC[C@@H](C)OC(=O)Nc5ccc(C(=O)N6CCO[C@@H](CO)C6)nc5)cc4s3)cc(C)cc2n1` [Example 480, (R)-1-((5-fluoro-2-(2-methoxy-7-methylquinoxalin-5-yl)benzo[d]thiazol-6-yl)oxy)propan-2-yl (6-((R)-2-(hydroxymethyl)morpholine-4-carbonyl)pyridin-3-yl)carbamate], the IC50 is 3.4 nM.

As to `COc1cnc2c(-c3nc4cc(F)c(O[C@@H](C)[C@@H](C)OC(=O)Nc5ccc(C(=O)N6CCC[C@H](O)C6)nc5)cc4s3)cc(C)cc2n1` [Example 481, (2R,3S)-3-((5-fluoro-2-(2-methoxy-7-methylquinoxalin-5-yl)benzo[d]thiazol-6-yl)oxy)butan-2-yl (6-((S)-3-hydroxypiperidine-1-carbonyl)pyridin-3-yl)carbamate], the half-inhibitory concentration (IC50) amounted to 0.6 nM.

`COc1cnc2c(-c3nc4cc(F)c(O[C@@H](C)[C@@H](C)OC(=O)Nc5ccc(C(=O)N6CC[C@H](CO)C6)nc5)cc4s3)cc(C)cc2n1` [Example 482, (2R,3S)-3-((5-fluoro-2-(2-methoxy-7-methylquinoxalin-5-yl)benzo[d]thiazol-6-yl)oxy)butan-2-yl (6-((S)-3-(hydroxymethyl)pyrrolidine-1-carbonyl)pyridin-3-yl)carbamate]: the half-inhibitory concentration (IC50) is 0.6 nM.

Take `COc1cnc2c(-c3nc4cc(F)c(O[C@@H](C)[C@@H](C)OC(=O)Nc5ccc(C(=O)N6CCC[C@@H](O)C6)nc5)cc4s3)cc(C)cc2n1` [Example 483, (2R,3S)-3-((5-fluoro-2-(2-methoxy-7-methylquinoxalin-5-yl)benzo[d]thiazol-6-yl)oxy)butan-2-yl (6-((R)-3-hydroxypiperidine-1-carbonyl)pyridin-3-yl)carbamate]: the concentration for half-maximal inhibition (IC50) was 0.8 nM.

Regarding `COc1cnc2c(-c3nc4cc(F)c(OC[C@@H](C)OC(=O)Nc5ccc(C(=O)N6CCC[C@H](O)C6)nc5)cc4s3)cc(C)cc2n1` [Example 484, (R)-1-((5-fluoro-2-(2-methoxy-7-methylquinoxalin-5-yl)benzo[d]thiazol-6-yl)oxy)propan-2-yl (6-((S)-3-hydroxypiperidine-1-carbonyl)pyridin-3-yl)carbamate], the IC50 came out at 1 nM.

`COc1cnc2c(-c3nc4cc(F)c(OC[C@@H](C)OC(=O)Nc5ccc(C(=O)N6CCC[C@@H](O)C6)nc5)cc4s3)cc(C)cc2n1` [Example 485, (R)-1-((5-fluoro-2-(2-methoxy-7-methylquinoxalin-5-yl)benzo[d]thiazol-6-yl)oxy)propan-2-yl (6-((R)-3-hydroxypiperidine-1-carbonyl)pyridin-3-yl)carbamate]: the half-inhibitory concentration (IC50) stood at 1.6 nM.

On to `COc1cnc2c(-c3nc4cc(F)c(O[C@@H](C)[C@@H](C)OC(=O)Nc5ccc(C(=O)N6CCOC[C@@H]6CO)nc5)cc4s3)cc(C)cc2n1` [Example 487, (2R,3S)-3-((5-fluoro-2-(2-methoxy-7-methylquinoxalin-5-yl)benzo[d]thiazol-6-yl)oxy)butan-2-yl (6-((S)-3-(hydroxymethyl)morpholine-4-carbonyl)pyridin-3-yl)carbamate], for which the IC50 was found to be 1.3 nM.

On to `COc1cnc2c(-c3nc4cc(F)c(OC[C@@H](C)OC(=O)Nc5ccc(C(=O)N6CCOC[C@H]6CO)nc5)cc4s3)cc(C)cc2n1` [Example 488, (R)-1-((5-fluoro-2-(2-methoxy-7-methylquinoxalin-5-yl)benzo[d]thiazol-6-yl)oxy)propan-2-yl (6-((R)-3-(hydroxymethyl)morpholine-4-carbonyl)pyridin-3-yl)carbamate], for which the IC50 was found to be 14 nM.

Regarding `COc1cnc2c(-c3nc4cc(F)c(OC[C@@H](C)OC(=O)Nc5ccc(C(=O)N6CCOC[C@@H]6CO)nc5)cc4s3)cc(C)cc2n1` [Example 489, (R)-1-((5-fluoro-2-(2-methoxy-7-methylquinoxalin-5-yl)benzo[d]thiazol-6-yl)oxy)propan-2-yl (6-((S)-3-(hydroxymethyl)morpholine-4-carbonyl)pyridin-3-yl)carbamate], the IC50 stood at 9.1 nM.

As for `Cc1cc(-c2nc3cc(F)c(O[C@@H](C)[C@@H](C)OC(=O)Nc4cnc(C)nc4)cc3s2)c2ncc(OC(F)F)nc2c1` [Example 490, (2R,3S)-3-((2-(2-(difluoromethoxy)-7-methylquinoxalin-5-yl)-5-fluorobenzo[d]thiazol-6-yl)oxy)butan-2-yl (2-methylpyrimidin-5-yl)carbamate], the half-inhibitory concentration (IC50) amounted to 5.1 nM.

Take `CCCOc1cnc2c(-c3nc4cc(F)c(O[C@@H](C)[C@@H](C)OC(=O)Nc5cnc(C)nc5)cc4s3)cc(C)cc2n1` [Example 491, (2R,3S)-3-((5-fluoro-2-(7-methyl-2-propoxyquinoxalin-5-yl)benzo[d]thiazol-6-yl)oxy)butan-2-yl (2-methylpyrimidin-5-yl)carbamate]: the IC50 is 0.4 nM.

`Cc1cc(-c2nc3cc(F)c(O[C@@H](C)[C@@H](C)OC(=O)Nc4cnc(C)nc4)cc3s2)c2ncc(OC(C)C)nc2c1` [Example 492, (2R,3S)-3-((5-fluoro-2-(2-isopropoxy-7-methylquinoxalin-5-yl)benzo[d]thiazol-6-yl)oxy) butan-2-yl (2-methylpyrimidin-5-yl)carbamate]: the 50% inhibitory concentration (IC50) was determined as 7.4 nM.

In the case of `Cc1cc(-c2nc3cc(F)c(O[C@@H](C)[C@@H](C)OC(=O)Nc4cnc(C)nc4)cc3s2)c2ncc(OCCO)nc2c1` [Example 493, (2R,3S)-3-((5-fluoro-2-(2-(2-hydroxyethoxy)-7-methylquinoxalin-5-yl)benzo[d]thiazol-6-yl)oxy)butan-2-yl (2-methylpyrimidin-5-yl)carbamate], the half-maximal inhibitory concentration (IC50) is 21 nM.

Take `COc1cnc2c(-c3nc4c(Cl)c(F)c(OC[C@@H](C)OC(=O)Nc5ccnc(CO)c5)cc4s3)cc(C)cc2n1` [Example 494, (R)-1-((4-chloro-5-fluoro-2-(2-methoxy-7-methylquinoxalin-5-yl)benzo[d]thiazol-6-yl)oxy)propan-2-yl (2-(hydroxymethyl)pyridin-4-yl)carbamate]: the IC50 is 1.8 nM.

With `COc1cnc2c(-c3nc4cc(F)c(OC[C@@H](C)OC(=O)Nc5ccnc(CO)c5)cc4s3)cc(C)cc2n1` [Example 495, (R)-1-((5-fluoro-2-(2-methoxy-7-methylquinoxalin-5-yl)benzo[d]thiazol-6-yl)oxy)propan-2-yl (2-(hydroxymethyl)pyridin-4-yl)carbamate], the 50% inhibitory concentration (IC50) stood at 15 nM.

Consider `COc1cnc2c(-c3nc4cc(F)c(OC[C@@H](C)OC(=O)Nc5cnc(CO)nc5)cc4s3)cc(C)cc2n1` [Example 496, (R)-1-((5-fluoro-2-(2-methoxy-7-methylquinoxalin-5-yl)benzo[d]thiazol-6-yl)oxy)propan-2-yl (2-(hydroxymethyl)pyrimidin-5-yl)carbamate], for which the IC50 stood at 1.9 nM.

`COc1cnc2c(-c3nc4cc(F)c(OC[C@@H](C)OC(=O)Nc5cnc(C(C)(C)O)nc5)cc4s3)cc(C)cc2n1` [Example 497, (R)-1-((5-fluoro-2-(2-methoxy-7-methylquinoxalin-5-yl)benzo[d]thiazol-6-yl)oxy)propan-2-yl (2-(2-hydroxypropan-2-yl)pyrimidin-5-yl)carbamate]: the half-inhibitory concentration (IC50) worked out at 1.3 nM.

As for `COc1cnc2c(-c3nc4cc(F)c(OC[C@@H](C)OC(=O)Nc5ccc(C(C)(C)O)nc5)cc4s3)cc(C)cc2n1` [Example 498, (R)-1-((5-fluoro-2-(2-methoxy-7-methylquinoxalin-5-yl)benzo[d]thiazol-6-yl)oxy)propan-2-yl (6-(2-hydroxypropan-2-yl)pyridin-3-yl)carbamate], the half-maximal inhibitory concentration (IC50) was 1.3 nM.

A word on the IC50: it is the concentration that inhibits the measured activity by half.

For the origin of these results see patent US12060347B2 (BRISTOL-MYERS SQUIBB COMPANY, priority 2016, dated 2024).
